Test [1] in a line: LOOH formation in glucose-treated model membranes, EPA versus EA and ETE (Example 5). The test is classed as biochemical. As to conditions: 72 and 96 hr. On the procedure: An experiment was conducted to compare the ability of EPA to prevent lipid hydroperoxide formation in model membranes treated with glucose to two other 20-carbon fatty acids: eicosanoic acid (“EA,” also referred to as arachidic acid, C20:0) and eicosatrienoic acid (“ETE,” C20:3, n−3). All MLV samples were subjected to time-dependent autoxidation by incubating at 37° C. in an uncovered, shaking water bath. This method allows lipid peroxidation to occur gradually without requiring the use of exogenous initiators. Small aliquots (5-100 μL) of each sample were removed, immediately following MLV preparation (0 hr) and after exposing samples to oxidative conditions for 72 or 96 hr, and combined with 1.0 mL of activated CHOD-iodide color reagent. Aliquot volume was reduced with each successive time point to ensure that spectrophotometric readings were within the optimal adsorption range. Test samples were covered and incubated in darkness at room temperature for at least 4 hr. Sample absorbances were then measured against a CHOD blank at 365 nm using a Beckman DU-640 spectrophotometer. The CHOD colorimetric assay is based on the oxidation of iodide (I^−) by lipid hydroperoxide (LOOH) to form triiodide (I3^−), the quantity of which is directly proportional to the amount of LOOH present in the lipid sample. The molar absorptivity (E) of I3^− is 2.46×10^4 M^−1 cm^−1 at 365 nm.

For test [2], the system named is sdLDL isolated from human plasma. The test can be described thus: Copper-induced sdLDL oxidation 1 hour (Example 12). The class given is biochemical. The note with it: 10.0 μM; copper-induced oxidation 1 hour. On the procedure:
(§1) All samples, with the exception of non-oxidized sdLDL controls, were subjected to copper-induced oxidation for 1 hour. Human umbilical vein endothelial cells (HUVECs) were incubated with the various sdLDL samples, stimulated with calcium, and monitored for nitric oxide (NO) and peroxynitrite (ONOO^−) release using nanosensor technology.

Test [3] can be described thus: Lipid hydroperoxide (LOOH) formation in cholesterol-enriched model membranes under autoxidation, CHOD-iodide assay (Example 3). The class given is biochemical. As to conditions: EPA to lipids 1:30, C/P 0.6:1. The protocol:
An experiment was conducted to test EPA in model membranes enriched with PUFAs and cholesterol at levels that reproduce disease or high CV-risk conditions (i.e., hypercholesterolemia). […] Levels of lipid hydroperoxides were also measured in cholesterol-enriched membrane prepared in the absence of EPA as a control. […] CHOD-iodide color reagent (stock) was prepared according to a procedure modified from El-Saadani et […], Goher […], Jurgens G. A spectrophotometric assay for lipid peroxides in serum lipoproteins using commercially available reagent. J. Lipid. […] Membrane samples consisting of DLPC±cholesterol were prepared as follows. Component lipids (in chloroform) were transferred to 13×100 mm test tubes and shell-dried under a steady stream of nitrogen gas while vortex mixing. The lipid was co-dried with EPA. Residual solvent was removed by drying for a minimum of 3 h under vacuum. […] Absorbances were measured against a CHOD blank at 365 nm using a Beckman DU-640 spectrophotometer. The CHOD colorimetric assay is based on the oxidation of iodide (I^-) by lipid hydroperoxides (LOOH) and proceeds according to the following reaction scheme: […]3^- The quantity of triiodide anion (I3^-) liberated in this reaction is directly proportional to the amount of lipid hydroperoxides present in the membrane sample.

The subject of test [4] is unfractionated LDL isolated from human plasma. Nature of the test: Copper-induced oxidation of unfractionated LDL, TBARS (Example 6). As to conditions: 10.0 μM; unfractionated LDL. The class given is biochemical. The protocol: All test compounds were further diluted in ethanol or aqueous buffer as needed. Venous blood was collected from healthy volunteers into vacutainer tubes containing sodium EDTA. […] Plasma and lipoprotein fractions were maintained at 4° C. and protected from excessive exposure to light. Prior to oxidation experiments, EDTA was removed from the lipoprotein fraction using PD-10 desalting columns (GE Healthcare, Piscataway N.J.). After equilibration of the column with phosphate buffered saline (PBS), 2.5 mL of the lipoprotein fraction was loaded on the column and the flow-through discarded. The lipoprotein was then eluted with 3 mL of PBS. The LDL fractions were further diluted with PBS to obtain a 100 μg/mL apoB100 concentration. […] Differences between groups were analyzed using the two-tailed, Student's t-test (for comparisons between only two groups) or ANOVA followed by Dunnett or Student-Newman-Keuls multiple comparisons post-hoc analysis (for comparisons between three or more groups).

Another test has as its system HUVECs. Nature of the test: NO release from HUVECs incubated with treated, oxidized sdLDL samples (Example 12). The class given is cell-based, human. The note with it: EPA-treated. On the procedure: as §1

Bounds are passed on as bounds.

Turning to `CC/C=C\C/C=C\C/C=C\C/C=C\C/C=C\CCCC(=O)O` [EPA, cis-5,8,11,14,17-eicosapentaenoic acid], the “LOOH formation compared to vehicle only, glucose only, glucose and EA, glucose and ETE” value in test [1] was “significantly less LOOH formation”. In addition, the “reduced sdLDL oxidation compared to vehicle treatment alone” value in test [2] is greater than 90%. Moreover, in test [3] (after autoxidation 37° C. 72 hours), the LOOH levels came to 728 ± 30 µM. In test [3] (autoxidation 37° C. 72 hours), the “reduced LOOH levels compared to untreated controls” value is on record as “greater than 90%”. In test [4], the “reduced TBARS levels” value was 17%. Also, in the test on HUVECs, the “NO release increased as compared to non-oxidized sdLDL treatment” value was found to be 23% and the “NO release increased as compared to oxidized LDL treatment” value is given as 53%.
